Experimental data published in patent publication US20070172439A1, “Method of chemiluminescence-utilizing makeup and beautification, luminant for skin irradiation beautification and makeup/beautification equipment” (priority 2004, published 2007).

How the values were obtained:
[1] = tested on: mouse melanoma(B16 cell); assay: B16 cell proliferation rate (Abs 260 nm); type: cell-based; settings: VC 1 mM addition (positive control); control = 100
Text: (§1) • Cell: mouse melanoma(B16 cell) • Chemical luminescentbody: Normal type • Blue fluorescent light, orange fluorescent light, red fluorescent light, green fluorescent light, and yellow fluorescent light • High intensity type • Orange fluorescent light, red fluorescent light, and green fluorescent light (Produced by OmniGlow Japan Co., Ltd.) Assay: • 1. Seeded B16 cell to 24 well plate with […], MEM·10% S(+)·glucosamine culture medium. n=8 • 2. After culturing 5 days, it was transferred to MEM·10% S(+)·theophyline culture medium. • 3. Exposed to fluorescent light by placing the chemical luminescent body in contact with the plate for 4 hr. in the case of normal type and for 30 min. in the case of high intensity type. The control was under no exposure to fluorescent light and the positive control was in the 1 mMVC (Ascorbic acid) addition system. • 4. The cell was recovered three days after the start of exposure, dissolved into 0.1% DS normal saline solution, and then the optical density was measured at 260 nm (index of the amount of cell) and at 475 nm (index of the amount of melanin), and then the cell proliferation rate and the melanin synthesis rate per unit cell was calculated. • The B16 cell proliferation rate is shown in Table 4 and FIG. 7, and the melanin synthesis rate per unit cell is shown in Table 5 and FIG. 8. […]

[2] = tested on: mouse melanoma(B16 cell); assay: Melanin synthesis rate per unit cell (Abs 475/260 nm); type: cell-based; settings: VC 1 mM addition (positive control), control = 100
Text: as §1

[3] = tested on: Fibroblast(NHF); assay: Fibroblast proliferation, MTT assay (Example 5); type: cell-based, human; settings: PMG 100 mM (positive control); 24 hours
Experimental: (§2) • Cell:Fibroblast(NHF) • Chemical luminescence body (produced by OmniGlow Japan Co., Ltd.) • Normal type red (red fluorescent light) • High intensity orange (orange fluorescent light) • Collagen measurement kit: The amount of propeptide at the end of I type collagen C (PIP) is measured by Takara PIP kit. Assay: • (1)NHF is seeded at 2.0×10^4 to 24 well plate with DMEM·10% S(+). • (2) After confluent state is observed by culturing 5 days, it was transferred to non-color and non-blood-serum DMEM. • (3) Fluorescent light is allowed to irradiate (30 min.) by placing the chemical luminescent body in direct contact with 24 well plate. 100 mM PMG(phosphoric acid-L-magnesium ascorbate) addition system was prepared as the positive control. • (4) After 24 hours from the start of irradiation, the upper layer of the medium is recovered. • The amount of propeptide at the end of I type collagen C (PIP) is measured by Tatara PIP kit and then the calorimetric determination of cell proliferation is made by using MTT assay at observation wavelength of 540 nm and at reference wavelength of 655 nm. The cell proliferation rate is calculated by the formula below by setting the control of non-treated group as 100%. […]

[4] = tested on: Fibroblast(NHF); assay: Collagen synthesis rate, PIP kit per MTT (Example 5); type: cell-based, human; settings: PMG 100 mM (positive control); per unit cell; control = 100
Experimental: as §2

[5] = tested on: Normal human skin fibroblast (NHF); assay: Cell proliferation, MTT assay (Example 1); type: cell-based; settings: fluorescence 4 hrs, 100 mM PMG as positive control, vs untreated control
Experimental: The test was performed in the procedure described below: • 1. Cell: Normal human skin fibroblast (NHF) • 2. Chemical fluorescent body: CYALUME Light shape blue, orange and red Seller: OmniGlow Japan Co., Ltd. • 3. Assay: • (1) Seeded NHF to 24 well plate with 2.0×10^4 cells/well, DMEM·10% S(+) • (2) After confluent state is observed by culturing 5 days, it was transferred to non-color and non-blood-serum DMEM. • (3) Exposed to fluorescence (4 hrs.). 100 mM PMG additive system was used as the positive control. • (4) Observed the appearance of the cell (×40) • (5) The quantitative measurement of cell proliferation was made by using MTT assay and by means of colorimetric test with wavelengths of 540 nm for measurement and 655 nm for control. The cell proliferation rate was calculated by using the formula described below, setting the untreated control as 100%. • 4. Calculation formula Cell proliferation rate=([Sample addition OD(540 nm)]−[Sample addition OD(655 nm)])/([Control OD(540 nm)]−[Control OD(655 nm)])×100

Compound | B16 cell proliferation rate (%) [1] [%] | Melanin synthesis rate (%) [2] [%] | Fibroblast proliferation rate (%) [3] [%] | Collagen synthesis rate (%) [4] [%] | cell proliferation [5]
O=C1O[C@H]([C@@H](O)CO)C(O)=C1O [VC, Ascorbic acid] | 21.42 | 65.28 |  |  | 
phosphoric acid-L-magnesium ascorbate [PMG] |  |  | 138.2 | 127.6 | significantly promoted
